From PubChem BioAssay AID248 (DTP/NCI, 2004)
Where “and” joins values, the source holds several entries; their conditions need not be identical. Identical values can stand only once. Toxic doses and inconclusive results are not listed. Rule as the data show it: active = T/C of 150% or more; inactive = T/C below 125%.

Test system: L1210 leukemia ip in BDF1 mice, survival T/C
Assay: NCI In Vivo Anticancer Drug Screen. Data for tumor model L1210 Leukemia (intraperitoneal) in B6D2F1 (BDF1) mice
Conditions: endpoint: mean survival time, higher = longer survival
Outline: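 Tumor cells were implanted, animals were treated, and survival was followed. The result divides the treated measurement by the vehicle-control measurement.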

[1] = dose: 100.0 mg/kg/injection, schedule: Q04DX002 (ip), vehicle: Klucel (hydroxypropylcellulose) (HPC)
[2] = dose: 200.0 mg/kg/injection, schedule: Q04DX002 (ip), vehicle: Klucel (hydroxypropylcellulose) (HPC)
[3] = dose: 400.0 mg/kg/injection, schedule: Q04DX002 (ip), vehicle: Klucel (hydroxypropylcellulose) (HPC)
[4] = dose: 100.0 mg/kg/injection, schedule: Q01DX009 (ip), vehicle: saline with Tween-80
[5] = dose: 100.0 mg/kg/injection, schedule: Q04DX003 (ip), vehicle: saline with Tween-80
[6] = dose: 200.0 mg/kg/injection, schedule: Q04DX003 (ip), vehicle: saline with Tween-80
[7] = dose: 100.0 mg/kg/injection, schedule: Q01DX001 (ip), vehicle: saline
[8] = dose: 200.0 mg/kg/injection, schedule: Q01DX001 (ip), vehicle: saline
[9] = dose: 400.0 mg/kg/injection, schedule: Q01DX001 (ip), vehicle: saline
[10] = dose: 100.0 mg/kg/injection, schedule: Q04DX003 (ip), vehicle: saline
[11] = dose: 200.0 mg/kg/injection, schedule: Q04DX003 (ip), vehicle: saline
[12] = dose: 400.0 mg/kg/injection, schedule: Q04DX003 (ip), vehicle: saline
[13] = dose: 100.0 mg/kg/injection, schedule: Q01DX001 (ip), vehicle: Klucel (hydroxypropylcellulose) (HPC)
[14] = dose: 200.0 mg/kg/injection, schedule: Q01DX001 (ip), vehicle: Klucel (hydroxypropylcellulose) (HPC)
[15] = dose: 400.0 mg/kg/injection, schedule: Q01DX001 (ip), vehicle: Klucel (hydroxypropylcellulose) (HPC)
[16] = dose: 100.0 mg/kg/injection, schedule: Q04DX002 (ip), vehicle: saline with Tween-80
[17] = dose: 200.0 mg/kg/injection, schedule: Q04DX002 (ip), vehicle: saline with Tween-80
[18] = dose: 400.0 mg/kg/injection, schedule: Q04DX002 (ip), vehicle: saline with Tween-80

Measured: T/C

O=c1ccn(Cc2cccc(Oc3ccccc3)c2)c(=O)[nH]1
inactive: dose: 100.0 mg/kg/injection, schedule: Q01DX001 (ip), vehicle: saline with Tween-80 92 % of control | dose: 200.0 mg/kg/injection, schedule: Q01DX001 (ip), vehicle: saline with Tween-80 93 % of control | dose: 400.0 mg/kg/injection, schedule: Q01DX001 (ip), vehicle: saline with Tween-80 92 % of control

CC(C)OC(=O)Nc1cccc([N+](=O)[O-])c1
inactive: [1] 105 % of control | [2] 91 % of control | [3] 97 % of control

CC(=O)OC1C=CCC2C(=O)C3=C(C(=O)c4ccccc4C3=O)C(=O)C12 (stereo not drawn)
inactive: dose: 0.25 mg/kg/injection, schedule: Q04DX003 (ip), vehicle: saline with Tween-80 93 % of control | dose: 0.5 mg/kg/injection, schedule: Q04DX003 (ip), vehicle: saline with Tween-80 93 % of control | dose: 1.0 mg/kg/injection, schedule: Q04DX003 (ip), vehicle: saline with Tween-80 89 % of control | dose: 2.0 mg/kg/injection, schedule: Q04DX003 (ip), vehicle: saline with Tween-80 97 % of control | dose: 4.0 mg/kg/injection, schedule: Q04DX003 (ip), vehicle: saline with Tween-80 107 % of control | dose: 6.0 mg/kg/injection, schedule: Q04DX003 (ip), vehicle: saline with Tween-80 103 % of control | dose: 8.0 mg/kg/injection, schedule: Q04DX003 (ip), vehicle: saline with Tween-80 98 % of control | dose: 12.0 mg/kg/injection, schedule: Q04DX003 (ip), vehicle: saline with Tween-80 97 % of control | dose: 16.0 mg/kg/injection, schedule: Q04DX003 (ip), vehicle: saline with Tween-80 98 % of control | dose: 24.0 mg/kg/injection, schedule: Q04DX003 (ip), vehicle: saline with Tween-80 97 % of control | dose: 32.0 mg/kg/injection, schedule: Q04DX003 (ip), vehicle: saline with Tween-80 104 % of control | dose: 48.0 mg/kg/injection, schedule: Q04DX003 (ip), vehicle: saline with Tween-80 97 % of control | dose: 64.0 mg/kg/injection, schedule: Q04DX003 (ip), vehicle: saline with Tween-80 100 % of control | dose: 128.0 mg/kg/injection, schedule: Q04DX003 (ip), vehicle: saline with Tween-80 100 % of control

O=C(CNC(c1ccccc1)(c1ccccc1)c1ccccc1)OC(c1ccccc1)c1ccccc1
inactive: [4] 86 % of control | dose: 100.0 mg/kg/injection, schedule: Q04DX003 (ip), vehicle: saline sonified 106 % of control | dose: 200.0 mg/kg/injection, schedule: Q01DX009 (ip), vehicle: saline with Tween-80 89 % of control | dose: 200.0 mg/kg/injection, schedule: Q04DX003 (ip), vehicle: saline sonified 92 % of control | dose: 400.0 mg/kg/injection, schedule: Q04DX003 (ip), vehicle: saline sonified 97 % of control

N#CCC(=O)Cc1ccccc1[N+](=O)[O-]
inactive: [5] 95 % of control | [6] 100 % of control | dose: 400.0 mg/kg/injection, schedule: Q04DX003 (ip), vehicle: saline with Tween-80 94 % of control

COc1ccc(N2C(=O)OC3(CCN(CCCC(=O)c4ccccc4)CC3)C2=O)cc1
inactive: dose: 100.0 mg/kg/injection, schedule: Q04DX003 (ip), vehicle: Klucel (hydroxypropylcellulose) (HPC) 101 % of control | dose: 200.0 mg/kg/injection, schedule: Q04DX003 (ip), vehicle: Klucel (hydroxypropylcellulose) (HPC) 98 % of control | dose: 400.0 mg/kg/injection, schedule: Q04DX003 (ip), vehicle: Klucel (hydroxypropylcellulose) (HPC) 92 % of control

O=[N+]([O-])C1=C(c2ccccc2)C(c2ccccc2)(c2ccccc2)N=N1
inactive: [7] 100 % of control | [8] 90 % of control | [9] 88 % of control

CCCc1ccc(OCC(=O)O)c(OC)c1
inactive: dose: 75.0 mg/kg/injection, schedule: Q01DX001 (ip), vehicle: acetone 93 % of control | dose: 150.0 mg/kg/injection, schedule: Q01DX001 (ip), vehicle: acetone 92 % of control | dose: 300.0 mg/kg/injection, schedule: Q01DX001 (ip), vehicle: acetone 88 % of control

CCOC(=O)NCCCNC(=O)OCC
inactive: [10] 95 % of control | [11] 103 % of control | [12] 97 % of control

O=C1c2ccccc2C(=O)N1CCl
inactive: [13] 93 % of control | [14] 104 % of control | [15] 114 % of control

Cc1ccc(S(=O)(=O)NC(Cc2ccccc2)C(=O)Nc2cccnc2)cc1 (stereo not drawn)
inactive: [13] 91 % of control | [14] 100 % of control | [15] 88 % of control

Oc1cc2ccccc2cc1O
inactive: [16] 104 % of control | [17] 97 % of control | [18] 93 % of control

OC(C1CCCCN1)C12CC3CC(CC(C3)C1)C2 (stereo not drawn)
inactive: dose: 50.0 mg/kg/injection, schedule: Q01DX009 (ip), vehicle: saline with Tween-80 104 % of control | [4] 98 % of control | [5] 105 % of control | [6] 95 % of control

C[N+]1(C2CCC3CCC2C3O)CCOCC1 (stereo not drawn)
inactive: dose: 50.0 mg/kg/injection, schedule: Q01DX009 (ip), vehicle: saline 106 % of control and 124 % of control | dose: 100.0 mg/kg/injection, schedule: Q01DX009 (ip), vehicle: saline 100 % of control | [10] 103 % of control and 101 % of control | dose: 200.0 mg/kg/injection, schedule: Q01DX009 (ip), vehicle: saline 98 % of control | [11] 97 % of control and 105 % of control

Cc1cc(CCl)c(C)cc1CCl
inactive: dose: 25.0 mg/kg/injection, schedule: Q04DX003 (ip), vehicle: saline with Tween-80 96 % of control | dose: 50.0 mg/kg/injection, schedule: Q04DX003 (ip), vehicle: saline with Tween-80 90 % of control

NC(=O)N/N=C(/Cl)C(=O)NNC(N)=O
inactive: [16] 89 % of control | [17] 89 % of control | [18] 96 % of control

Cn1nnc(N)n1
inactive: [7] 98 % of control | [10] 102 % of control | [8] 100 % of control | [11] 96 % of control | [9] 100 % of control | [12] 102 % of control

CC(C)([NH-])CO.CC(C)([NH-])CO.[Cl][Cd][Cl]
inactive: dose: 3.13 mg/kg/injection, schedule: Q01DX009 (ip), vehicle: saline sonified 98 % of control | dose: 5.0 mg/kg/injection, schedule: Q01DX009 (ip), vehicle: saline 96 % of control | dose: 6.25 mg/kg/injection, schedule: Q01DX009 (ip), vehicle: saline sonified 96 % of control | dose: 6.25 mg/kg/injection, schedule: Q04DX003 (ip), vehicle: saline sonified 95 % of control | dose: 10.0 mg/kg/injection, schedule: Q01DX009 (ip), vehicle: saline 100 % of control | dose: 10.0 mg/kg/injection, schedule: Q04DX003 (ip), vehicle: alcohol 93 % of control | dose: 12.5 mg/kg/injection, schedule: Q01DX009 (ip), vehicle: saline sonified 98 % of control | dose: 12.5 mg/kg/injection, schedule: Q04DX003 (ip), vehicle: saline sonified 92 % of control | dose: 20.0 mg/kg/injection, schedule: Q04DX003 (ip), vehicle: alcohol 89 % of control

COC1OC(COC(=S)SCC2OC(OC)C(OC)C(OC)C2OC)C(OC)C(OC)C1OC (stereo not drawn)
inactive: [1] 100 % of control | [2] 93 % of control and 92 % of control | [3] 96 % of control and 89 % of control

NC12CCCCC1(O)CCCC2 (stereo not drawn)
inactive: dose: 75.0 mg/kg/injection, schedule: Q01DX001 (ip), vehicle: saline 101 % of control | dose: 150.0 mg/kg/injection, schedule: Q01DX001 (ip), vehicle: saline 101 % of control | dose: 300.0 mg/kg/injection, schedule: Q01DX001 (ip), vehicle: saline 95 % of control

CCSC(C(O)C(O)C(O)C(O)CO)n1cnc2c(=S)nc[nH]c21 (stereo not drawn)
inactive: [7] 105 % of control | [10] 96 % of control | [8] 105 % of control | [11] 100 % of control | [9] 103 % of control | [12] 96 % of control

CC12CCC(O)(CC1)CC2(O)c1ccccc1 (stereo not drawn)
inactive: dose: 100.0 mg/kg/injection, schedule: Q04DX002 (ip), vehicle: saline 102 % of control | dose: 200.0 mg/kg/injection, schedule: Q04DX002 (ip), vehicle: saline 95 % of control | dose: 400.0 mg/kg/injection, schedule: Q04DX002 (ip), vehicle: saline 98 % of control
